The record followed here is ChEMBL document CHEMBL1201862, “PubChem BioAssay data set” (2004).

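Step 1: Grow cells in 96-well plates. Step 2: Expose to compound for 48 hours at 5 concentrations. Step 3: Interpolate endpoints linearly; if unreached, use highest concentration. GI50 is the concentration that inhibits growth by half.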 Activity calls are given as the source filed them. No stated cut-off is given here; in the data, active = GI50 up to about 1.1 µM and inactive = higher.

Test systems include 786-0; A549; CCRF-CEM; DU-145; EKVX; HL-60; HOP-62; K562; M14; NCI-H226; NCI-H460; OVCAR-3; OVCAR-4; OVCAR-5; RXF 393; SF-268; SK-MEL-28; SK-MEL-2; SW-620; TK-10.
Holding throughout (assay): inhibition of tumour cell growth, NCI panel, 48 h

Regarding `Cc1ccc(S(=O)(=O)Nc2cc(O)nc3c2CCC3)cc1`, the GI50 is > 100 µM (inactive) in the experiment with 786-0; > 100 µM (inactive) with A549; > 100 µM (inactive) in the experiment on CCRF-CEM; > 100 µM (inactive) in the experiment with DU-145; > 100 µM (inactive) with EKVX; 34 µM (inactive) in the experiment with HL-60. Besides, the GI50 in the experiment with HOP-62, in the experiment on K562, with M14, in the experiment on NCI-H226, in the experiment on NCI-H460 and with OVCAR-3 was > 100 µM (inactive) throughout. The GI50 in the experiment with OVCAR-4 is 57.1 µM (inactive); in the experiment on OVCAR-5, > 100 µM (inactive); in the experiment on RXF 393, > 100 µM (inactive); in the experiment with SF-268 it was > 100 µM (inactive); in the experiment on SK-MEL-28 it was > 100 µM (inactive); in the experiment on SK-MEL-2 it was > 100 µM (inactive). Further, the GI50 with SW-620 and with TK-10 was > 100 µM (inactive) each time.

`C=CC(=O)N1C/C(=C\c2ccc(Cl)cc2)C(=O)/C(=C/c2ccc(Cl)cc2)C1`: the GI50 in the experiment with 786-0 is 0.21 µM (active); in the experiment on A549, 0.356 µM (active); with CCRF-CEM, 0.175 µM (active); in the experiment on DU-145, 0.813 µM (active); in the experiment with EKVX it was 0.885 µM (active); in the experiment on HL-60, 0.484 µM (active). The GI50 in the experiment with HOP-62 is 0.317 µM (active); in the experiment on K562 it was 0.265 µM (active); with M14, 0.255 µM (active); in the experiment with NCI-H226 it was 0.237 µM (active); in the experiment with NCI-H460, 0.468 µM (active); with OVCAR-3, 0.31 µM (active). Further, the GI50 was 0.286 µM (active) in the experiment on OVCAR-4; 0.641 µM (active) in the experiment on OVCAR-5; 0.275 µM (active) with RXF 393; 0.221 µM (active) in the experiment with SF-268; 0.442 µM (active) in the experiment on SK-MEL-28; 1.32 µM (inactive) in the experiment with SK-MEL-2. The GI50 with SW-620 is 0.15 µM (active); in the experiment on TK-10, 1.39 µM (inactive).

Consider `O=C1C(/N=N/c2ccc(-c3nc4ccccc4o3)cc2)NC(=S)N1c1ccccc1` (stereo not given), for which the GI50 is > 100 µM (inactive) in the experiment on 786-0; > 100 µM (inactive) in the experiment with A549; 0.0479 µM (active) in the experiment with CCRF-CEM; 37.4 µM (inactive) in the experiment on DU-145; 49.3 µM (inactive) with EKVX; 0.13 µM (active) in the experiment on HL-60. In addition, the GI50 is > 100 µM (inactive) with HOP-62; 67.8 µM (inactive) in the experiment on K562; 62.7 µM (inactive) in the experiment with M14; > 100 µM (inactive) in the experiment with NCI-H226; 70.3 µM (inactive) in the experiment with NCI-H460; 23.6 µM (inactive) in the experiment on OVCAR-3. Moreover, the GI50 in the experiment with OVCAR-4 is 82 µM (inactive); with OVCAR-5, > 100 µM (inactive); in the experiment with RXF 393, 83.8 µM (inactive); with SF-268, > 100 µM (inactive); in the experiment with SK-MEL-28 it was > 100 µM (inactive); in the experiment with SK-MEL-2, > 100 µM (inactive). Besides, the GI50 in the experiment with SW-620 was 32.3 µM (inactive); in the experiment on TK-10, 70 µM (inactive).

As to `Cc1ccc2cccc(OC(=O)c3cc4c(cc3Cl)Sc3nccn3S4(=O)=O)c2n1`, the GI50 was 17 µM (inactive) with 786-0; 11.2 µM (inactive) with A549; 2.5 µM (inactive) in the experiment with CCRF-CEM; 5.83 µM (inactive) in the experiment with DU-145; 16.7 µM (inactive) in the experiment with EKVX; < 0.01 µM (active) in the experiment on HL-60. Further, the GI50 was 0.661 µM (active) in the experiment on HOP-62; 4.06 µM (inactive) with K562; 8.79 µM (inactive) with M14; 21 µM (inactive) in the experiment with NCI-H226; 3.13 µM (inactive) in the experiment with NCI-H460; 2.75 µM (inactive) with OVCAR-3. For the same molecule, the GI50 in the experiment on OVCAR-4 was 11.3 µM (inactive); in the experiment with OVCAR-5, 23.8 µM (inactive); with RXF 393, 5.16 µM (inactive); in the experiment on SF-268, 6.98 µM (inactive); with SK-MEL-28, 10.2 µM (inactive); with SK-MEL-2, 11.5 µM (inactive). The values for the GI50 in the experiment on SW-620 and in the experiment with TK-10 were 9.71 µM (inactive) and 11 µM (inactive), respectively.

As to `C(=C(c1ccc(OC2CCCCO2)cc1)c1ccc(OC2CCCCO2)cc1)c1ccccc1` (stereo not given), the GI50 was 0.519 µM (active) in the experiment on 786-0; 0.522 µM (active) in the experiment on A549; 0.246 µM (active) with CCRF-CEM; 0.838 µM (active) in the experiment on DU-145; 0.456 µM (active) in the experiment with EKVX; 0.233 µM (active) in the experiment on HL-60. In addition, the GI50 is 0.925 µM (active) in the experiment with HOP-62; 0.35 µM (active) in the experiment on K562; 0.697 µM (active) with M14; 1.21 µM (inactive) in the experiment on NCI-H226; 0.395 µM (active) with NCI-H460; 0.577 µM (active) in the experiment with OVCAR-3. The GI50 with OVCAR-4 was 0.392 µM (active); in the experiment on OVCAR-5, 1.06 µM (active); in the experiment on RXF 393, 1.03 µM (active); with SF-268 it was 1.09 µM (active); in the experiment on SK-MEL-28 it was 1.04 µM (active); in the experiment on SK-MEL-2, 1.4 µM (inactive). In addition, the GI50 in the experiment with SW-620 is 0.54 µM (active); in the experiment with TK-10 it was 1.14 µM (inactive).

As to `O=C(O)C(SC1=NC(=O)C2(NN1)c1ccccc1-c1ccccc12)SC1=NC(=O)C2(NN1)c1ccccc1-c1ccccc12`, the GI50 in the experiment with 786-0 was > 10 µM (inactive); in the experiment on A549, > 10 µM (inactive); with CCRF-CEM, > 10 µM (inactive); in the experiment with DU-145 it was > 10 µM (inactive); in the experiment on EKVX, 9.64 µM (inactive); in the experiment on HL-60 it was 5.14 µM (inactive). For the same molecule, the GI50 in the experiment on HOP-62 is > 10 µM (inactive); with K562, 9.51 µM (inactive); with M14 it was > 10 µM (inactive); in the experiment with NCI-H226, > 10 µM (inactive); with NCI-H460, > 10 µM (inactive); in the experiment on OVCAR-3, > 10 µM (inactive). The GI50 with OVCAR-4, with OVCAR-5, with RXF 393, in the experiment with SF-268, with SK-MEL-28 and with SK-MEL-2 was > 10 µM (inactive) each time. Besides, the GI50 in the experiment with SW-620 and in the experiment on TK-10 was > 10 µM (inactive) throughout.

Regarding `O=C(OCc1ccccc1)c1nc2ccccc2n1S(=O)(=O)c1ccccc1`, the GI50 with 786-0, with A549, in the experiment on CCRF-CEM, with DU-145, with EKVX and with HL-60 was > 100 µM (inactive) each time. Moreover, the GI50 in the experiment on HOP-62, in the experiment on K562, in the experiment on M14, in the experiment on NCI-H226, in the experiment with NCI-H460 and with OVCAR-3 was > 100 µM (inactive) each time. Further, the GI50 in the experiment with OVCAR-4, in the experiment on OVCAR-5, in the experiment on RXF 393, in the experiment with SF-268, with SK-MEL-28 and with SK-MEL-2 was > 100 µM (inactive) in each case. In addition, the GI50 in the experiment on SW-620 and in the experiment on TK-10 was > 100 µM (inactive) each time.

In the case of `CC[C@@]1(O)C(=O)OCc2c1cc1n(c2=O)Cc2c-1nc1ccccc1c2/C=N\NC(=O)C(N)Cc1c[nH]cn1` (stereo not given in full), the GI50 with 786-0 is 0.213 µM (active); in the experiment on A549, 0.452 µM (active); in the experiment with CCRF-CEM, 0.0214 µM (active); with DU-145 it was 0.181 µM (active); with EKVX, 7.45 µM (inactive); in the experiment on HL-60, 0.164 µM (active). Besides, the GI50 with HOP-62 is 0.0524 µM (active); in the experiment on K562, 0.468 µM (active); in the experiment with M14 it was 0.324 µM (active); in the experiment with NCI-H226 it was 0.571 µM (active); in the experiment on NCI-H460, 0.0832 µM (active); in the experiment on OVCAR-3, 3.95 µM (inactive). In addition, the GI50 with OVCAR-4 is 4.41 µM (inactive); with OVCAR-5, 3.56 µM (inactive); in the experiment on RXF 393 it was 0.861 µM (active); in the experiment on SF-268, 0.0545 µM (active); in the experiment with SK-MEL-28 it was 1.26 µM (inactive); in the experiment on SK-MEL-2 it was 7.74 µM (inactive). Also, the figures for the GI50 in the experiment with SW-620 and in the experiment on TK-10 were 0.148 µM (active) and 13.3 µM (inactive), respectively.

`C=CCn1c(=O)c2ccccc2[n+]2c(C)c(C(=O)OCC)sc12`: the GI50 in the experiment on 786-0, in the experiment on A549, in the experiment with CCRF-CEM, in the experiment with DU-145, in the experiment with EKVX and with HL-60 was > 100 µM (inactive) in each case. The GI50 in the experiment with HOP-62 is 42.4 µM (inactive); in the experiment with K562, > 100 µM (inactive); with M14, > 100 µM (inactive); in the experiment with NCI-H226 it was > 100 µM (inactive); in the experiment with NCI-H460 it was > 100 µM (inactive); in the experiment on OVCAR-3 it was > 100 µM (inactive). The GI50 in the experiment on OVCAR-4, in the experiment on OVCAR-5, with RXF 393, with SF-268, in the experiment with SK-MEL-28 and in the experiment with SK-MEL-2 was > 100 µM (inactive) each time. The GI50 with SW-620 and in the experiment on TK-10 was > 100 µM (inactive) throughout.

For `Nc1nc2c(ncn2C2C=CC(COS(N)(=O)=O)C2)c(=O)[nH]1` (stereo not given), the GI50 in the experiment with 786-0, with A549, in the experiment with CCRF-CEM, in the experiment with DU-145, with EKVX and with HL-60 was > 100 µM (inactive) throughout. The GI50 in the experiment with HOP-62, with K562, in the experiment on M14, with NCI-H226, with NCI-H460 and in the experiment on OVCAR-3 was > 100 µM (inactive) each time. The GI50 in the experiment on OVCAR-4, with OVCAR-5, in the experiment with RXF 393, with SF-268, in the experiment on SK-MEL-28 and in the experiment on SK-MEL-2 was > 100 µM (inactive) each time. Besides, the GI50 with SW-620 and with TK-10 was > 100 µM (inactive) in each case.
